Test results taken from US10308643B2, “Heterocyclic compound” (Takeda Pharmaceutical Company Limited, priority 2015, dated 2019).

How the values were obtained:
Assay type in all cases: biochemical
HDAC6 enzyme = molecular target: T1, HDAC6 enzyme (Homo sapiens, UniProt Q9UBN7); assay: HDAC1/6 Enzyme Inhibitory Assay (HDAC-Glo I/II Assay kit), HDAC6; settings: 1 μM test compound, wells without enzyme = 100% inhibition; for inhibition at 1 µM: read-out: HDAC6 inhibitory rate (%) (1 μM)
T1 construct: transducing full length HDAC1 and HDAC6 genes into Sf-9 insect cells; GST; purchased SignalChem; host or cells: Sf-9 insect cells
T1 sequence (Q9UBN7 1-1215): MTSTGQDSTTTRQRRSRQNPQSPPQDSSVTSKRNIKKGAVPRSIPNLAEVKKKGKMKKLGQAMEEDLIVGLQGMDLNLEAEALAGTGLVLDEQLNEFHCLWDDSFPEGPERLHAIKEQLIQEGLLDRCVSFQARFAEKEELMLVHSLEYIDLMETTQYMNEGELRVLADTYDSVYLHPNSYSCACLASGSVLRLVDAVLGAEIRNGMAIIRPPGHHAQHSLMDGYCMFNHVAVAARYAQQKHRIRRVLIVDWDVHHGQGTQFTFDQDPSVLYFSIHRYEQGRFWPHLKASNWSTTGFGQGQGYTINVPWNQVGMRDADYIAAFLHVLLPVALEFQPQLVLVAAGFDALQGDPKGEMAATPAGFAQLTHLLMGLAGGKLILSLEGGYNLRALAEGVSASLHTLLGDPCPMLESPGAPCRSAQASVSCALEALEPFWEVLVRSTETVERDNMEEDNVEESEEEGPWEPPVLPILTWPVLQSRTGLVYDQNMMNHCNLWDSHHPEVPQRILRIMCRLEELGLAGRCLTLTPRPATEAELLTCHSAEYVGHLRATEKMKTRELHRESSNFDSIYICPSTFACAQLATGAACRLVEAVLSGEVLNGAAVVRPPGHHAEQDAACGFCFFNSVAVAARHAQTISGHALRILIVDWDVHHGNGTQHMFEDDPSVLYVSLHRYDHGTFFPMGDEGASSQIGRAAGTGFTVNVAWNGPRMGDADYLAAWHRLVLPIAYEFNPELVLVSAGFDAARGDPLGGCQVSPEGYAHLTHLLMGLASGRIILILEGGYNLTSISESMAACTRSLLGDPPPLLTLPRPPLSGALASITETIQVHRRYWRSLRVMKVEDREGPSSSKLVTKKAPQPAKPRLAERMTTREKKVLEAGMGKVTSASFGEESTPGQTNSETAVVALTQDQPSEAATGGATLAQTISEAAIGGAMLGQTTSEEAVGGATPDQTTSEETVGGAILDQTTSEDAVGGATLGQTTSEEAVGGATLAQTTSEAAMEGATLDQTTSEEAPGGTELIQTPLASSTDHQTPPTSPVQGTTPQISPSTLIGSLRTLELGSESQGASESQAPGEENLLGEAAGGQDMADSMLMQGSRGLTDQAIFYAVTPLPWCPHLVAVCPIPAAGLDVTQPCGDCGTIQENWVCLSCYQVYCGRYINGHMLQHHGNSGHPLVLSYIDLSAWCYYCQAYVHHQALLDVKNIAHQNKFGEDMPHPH
Summary of the method: (§1)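 Full-length human HDAC1 or HDAC6, expressed in Sf-9 cells and GST-purified, was preincubated with compound for 60 min at room temperature in Tris-HCl pH 7.5 buffer with MgCl2, KCl, NaCl, glutathione and Tween-20. HDAC-Glo substrate-developer was then added, and luminescence was read after 20 min. Inhibition was referenced to no-enzyme wells as 100%.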

HDAC9 enzyme = molecular target: T2, HDAC9 enzyme (Homo sapiens, UniProt Q9UKV0); assay: HDAC9 Enzyme Inhibitory Assay (HDAC-Glo class IIa); settings: 1 μM test compound, wells without enzyme = 100% inhibition; for inhibition at 1 µM: read-out: HDAC9 inhibitory rate (%) (1 μM)
T2 construct: transducing full length HDAC9 gene into Sf-9 insect cells; made in house; host or cells: Sf-9 insect cells
Summary of the method: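 Luminescent HDAC-Glo class IIa readout after a 20 min room-temperature reaction; relative inhibition referenced to enzyme-free wells as 100%. Test compound first preincubated 60 min with Sf-9-expressed, Ni-NTA-purified full-length HDAC9 in pH 7.5 Tris buffer containing 135 mM NaCl, 0.6 mM glutathione and 0.01% Tween-20.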

HDAC1 enzyme = molecular target: T3, HDAC1 enzyme (Homo sapiens, UniProt Q13547); assay: HDAC1/6 Enzyme Inhibitory Assay (HDAC-Glo I/II Assay kit), HDAC1; settings: 1 μM test compound, wells without enzyme = 100% inhibition; for inhibition at 1 µM: read-out: HDAC1 inhibitory rate (%) (1 μM)
T3 construct: transducing full length HDAC1 and HDAC6 genes into Sf-9 insect cells; GST; purchased SignalChem; host or cells: Sf-9 insect cells
Summary of the method: as §1

T2 sequence (Q9UKV0 whole entry, species assumed): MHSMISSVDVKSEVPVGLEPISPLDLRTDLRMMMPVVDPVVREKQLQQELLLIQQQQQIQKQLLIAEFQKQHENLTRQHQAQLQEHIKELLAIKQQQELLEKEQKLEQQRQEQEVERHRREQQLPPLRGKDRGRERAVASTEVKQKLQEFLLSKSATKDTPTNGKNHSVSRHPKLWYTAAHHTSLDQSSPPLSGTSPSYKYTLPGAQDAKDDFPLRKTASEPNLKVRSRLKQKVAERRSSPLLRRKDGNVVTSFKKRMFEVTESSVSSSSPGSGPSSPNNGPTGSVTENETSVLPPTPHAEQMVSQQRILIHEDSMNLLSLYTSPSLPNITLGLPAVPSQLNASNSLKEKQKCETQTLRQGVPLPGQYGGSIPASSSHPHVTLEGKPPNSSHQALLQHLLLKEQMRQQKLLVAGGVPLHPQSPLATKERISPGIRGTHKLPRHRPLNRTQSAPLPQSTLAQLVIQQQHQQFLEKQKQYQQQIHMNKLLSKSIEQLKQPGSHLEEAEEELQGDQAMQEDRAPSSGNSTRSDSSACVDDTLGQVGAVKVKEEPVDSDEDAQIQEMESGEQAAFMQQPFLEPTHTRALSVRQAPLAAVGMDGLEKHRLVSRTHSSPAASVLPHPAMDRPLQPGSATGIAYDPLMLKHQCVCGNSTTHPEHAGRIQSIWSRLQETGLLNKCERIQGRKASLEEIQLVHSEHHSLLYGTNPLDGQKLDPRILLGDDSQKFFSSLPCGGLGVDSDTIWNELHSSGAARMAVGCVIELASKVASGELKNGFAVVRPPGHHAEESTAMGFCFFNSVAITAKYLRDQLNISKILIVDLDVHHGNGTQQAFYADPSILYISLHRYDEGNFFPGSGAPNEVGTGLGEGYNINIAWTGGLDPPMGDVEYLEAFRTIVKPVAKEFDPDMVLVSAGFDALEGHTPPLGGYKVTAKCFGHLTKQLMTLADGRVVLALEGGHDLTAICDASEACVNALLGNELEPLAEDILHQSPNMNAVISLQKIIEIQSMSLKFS
T3 sequence (Q13547 whole entry): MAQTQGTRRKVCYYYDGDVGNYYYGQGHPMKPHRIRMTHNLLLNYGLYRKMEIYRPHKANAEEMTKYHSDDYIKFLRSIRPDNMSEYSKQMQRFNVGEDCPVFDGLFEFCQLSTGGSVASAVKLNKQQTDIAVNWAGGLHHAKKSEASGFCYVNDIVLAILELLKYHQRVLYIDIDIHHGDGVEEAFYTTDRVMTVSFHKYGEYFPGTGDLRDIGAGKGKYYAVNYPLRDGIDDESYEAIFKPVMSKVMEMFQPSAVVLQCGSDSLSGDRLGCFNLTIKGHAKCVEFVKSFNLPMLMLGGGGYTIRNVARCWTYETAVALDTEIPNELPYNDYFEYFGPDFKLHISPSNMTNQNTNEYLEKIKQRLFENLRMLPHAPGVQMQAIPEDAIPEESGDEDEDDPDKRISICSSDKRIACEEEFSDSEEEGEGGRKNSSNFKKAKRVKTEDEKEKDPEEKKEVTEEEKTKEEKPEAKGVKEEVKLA

O=C(N[C@@H]1CCCC[C@H]1N1Cc2ccc(-c3noc(C(F)(F)F)n3)cc2C1=O)N1C2CCC1COC2 [Example 145, N-((1R,2R)-2-(1-oxo-6-(5-(trifluoromethyl)-1,2,4-oxadiazol-3-yl)-1,3-dihydro-2H-isoindol-2-yl)cyclohexyl)-3-oxa-8-azabicyclo[3.2.1]octane-8-carboxamide]
inhibition at 1 µM (HDAC6 enzyme): 98% | inhibition at 1 µM (HDAC9 enzyme): 35% | inhibition at 1 µM (HDAC1 enzyme): 0%

O=C(N[C@@H]1CCOC[C@H]1N1Cc2ccc(-c3noc(C(F)(F)F)n3)cc2C1=O)[C@H]1CC1(F)F [Example 190, (1R)-2,2-difluoro-N-((3S,4R)-3-(1-oxo-6-(5-(trifluoromethyl)-1,2,4-oxadiazol-3-yl)-1,3-dihydro-2H-isoindol-2-yl)tetrahydro-2H-pyran-4-yl)cyclopropanecarboxamide]
inhibition at 1 µM (HDAC6 enzyme): 100% | inhibition at 1 µM (HDAC9 enzyme): 84% | inhibition at 1 µM (HDAC1 enzyme): 19%

CC(=O)N1CC(C)(C(=O)N[C@@H]2CCCC[C@H]2N2Cc3ccc(-c4noc(C(F)(F)F)n4)cc3C2=O)C1 [Example 195, 1-acetyl-3-methyl-N-((1R,2R)-2-(1-oxo-6-(5-(trif1uoromethyl)-1,2,4-oxadiazol-3-yl)-1,3-dihydro-2H-isoindol-2-yl)cyclohexyl)azetidine-3-carboxamide]
inhibition at 1 µM (HDAC6 enzyme): 98% | inhibition at 1 µM (HDAC9 enzyme): 57% | inhibition at 1 µM (HDAC1 enzyme): 1%

CC1(C(=O)N[C@@H]2CCOC[C@H]2N2Cc3ccc(-c4noc(C(F)(F)F)n4)cc3C2=O)COC1 [Example 192, 3-methyl-N-((3S,4R)-3-(1-oxo-6-(5-(trifluoromethyl)-1,2,4-oxadiazol-3-yl)-1,3-dihydro-2H-isoindol-2-yl)tetrahydro-2H-pyran-4-yl)oxetane-3-carboxamide]
inhibition at 1 µM (HDAC6 enzyme): 99% | inhibition at 1 µM (HDAC9 enzyme): 40% | inhibition at 1 µM (HDAC1 enzyme): 6%

CC(=O)N1CCC(N2Cc3ncc(-c4noc(C(F)(F)F)n4)cc3C2=O)C1 (stereo not drawn) [Example 69, 6-(1-acetylpyrrolidin-3-yl)-3-(5-(trifluoromethyl)-1,2,4-oxadiazol-3-yl)-6,7-dihydro-5H-pyrrolo[3,4-b]pyridin-5-one]
inhibition at 1 µM (HDAC6 enzyme): 91% | inhibition at 1 µM (HDAC9 enzyme): 81% | inhibition at 1 µM (HDAC1 enzyme): 15%

O=C(N[C@@H]1CCCC[C@H]1N1Cc2ccc(-c3noc(C(F)(F)F)n3)cc2C1=O)N1CC(F)C1 [Example 187, 3-fluoro-N-((1R,2R)-2-(1-oxo-6-(5-(trifluoromethyl)-1,2,4-oxadiazol-3-yl)-1,3-dihydro-2H-isoindol-2-yl)cyclohexyl)azetidine-1-carboxamide]
inhibition at 1 µM (HDAC6 enzyme): 99% | inhibition at 1 µM (HDAC9 enzyme): 29% | inhibition at 1 µM (HDAC1 enzyme): 9%

O=C(N[C@@H]1CCCC[C@H]1N1Cc2ccc(-c3noc(C(F)(F)F)n3)cc2C1=O)C1CC1(F)F (stereo partly drawn) [Example 105, 2,2-difluoro-N-((1R,2R)-2-(1-oxo-6-(5-(trifluoromethyl)-1,2,4-oxadiazol-3-yl)-1,3-dihydro-2H-isoindol-2-yl)cyclohexyl) cyclopropanecarboxamide]
inhibition at 1 µM (HDAC6 enzyme): 100% | inhibition at 1 µM (HDAC9 enzyme): 50% | inhibition at 1 µM (HDAC1 enzyme): 7%

CN1CCC(C(=O)N[C@@H]2CCCC[C@H]2N2Cc3ccc(-c4noc(C(F)(F)F)n4)cc3C2=O)CC1 [Example 123, 1-methyl-N-((1R,2R)-2-(1-oxo-6-(5-(trifluoromethyl)-1,2,4-oxadiazol-3-yl)-1,3-dihydro-2H-isoindol-2-yl)cyclohexyl)piperidine-4-carboxamide]
inhibition at 1 µM (HDAC6 enzyme): 56% | inhibition at 1 µM (HDAC9 enzyme): 5% | inhibition at 1 µM (HDAC1 enzyme): -4%

O=C(N[C@@H]1CCCC[C@H]1N1Cc2ccc(-c3noc(C(F)(F)F)n3)cc2C1=O)C1CCOC1 (stereo partly drawn) [Example 116, N-((1R,2R)-2-(1-oxo-6-(5-(trifluoromethyl)-1,2,4-oxadiazol-3-yl)-1,3-dihydro-2H-isoindol-2-yl)cyclohexyl)tetrahydrofuran-3-carboxamide]
inhibition at 1 µM (HDAC6 enzyme): 98% | inhibition at 1 µM (HDAC9 enzyme): 45% | inhibition at 1 µM (HDAC1 enzyme): 4%

O=C1CCCN1c1cccc(Cl)c1N1Cc2ccc(-c3noc(C(F)(F)F)n3)cc2C1=O [Example 185, 2-(2-chloro-6-(2-oxopyrrolidin-1-yl)phenyl)-6-(5-(trifluoromethyl)-1,2,4-oxadiazol-3-yl)isoindolin-1-one]
inhibition at 1 µM (HDAC6 enzyme): 97% | inhibition at 1 µM (HDAC9 enzyme): 41% | inhibition at 1 µM (HDAC1 enzyme): 5%

CC(CO)(CCl)C(=O)N[C@@H]1CCCC[C@H]1N1Cc2ccc(-c3noc(C(F)(F)F)n3)cc2C1=O (relative stereo) [Example 204, 3-chloro-2-(hydroxymethyl)-2-methyl-N-(trans-2-(1-oxo-6-(5-(trifluoromethyl)-1,2,4-oxadiazol-3-yl)-1,3-dihydro-2H-isoindol-2-yl)cyclohexyl)propanamide]
HDAC6 inhibitory rate (%) (1 μM) (HDAC6 enzyme): 99% | HDAC9 inhibitory rate (%) (1 μM) (HDAC9 enzyme): 71% | HDAC1 inhibitory rate (%) (1 μM) (HDAC1 enzyme): 7%

CC(C)(C)OC(=O)N1CC[C@H](N2Cc3ccc(-c4noc(C(F)(F)F)n4)cc3C2=O)[C@@H](c2ccccc2)C1 [Example 30, tert-butyl (3S,4S)-4-(1-oxo-6-(5-(trifluoromethyl)-1,2,4-oxadiazol-3-yl)-1,3-dihydro-2H-isoindol-2-yl)-3-phenylpiperidine-1-carboxylate]
inhibition at 1 µM (HDAC6 enzyme): 97% | inhibition at 1 µM (HDAC9 enzyme): 84% | inhibition at 1 µM (HDAC1 enzyme): 30%

O=C1c2cc(-c3noc(C(F)(F)F)n3)ccc2CN1[C@@H]1CCNC[C@H]1c1ccc(F)cc1 (relative stereo) [Example 45, 2-(trans-3-(4-fluorophenyl)piperidin-4-yl)-6-(5-(trifluoromethyl)-1,2,4-oxadiazol-3-yl)isoindolin-1-one]
inhibition at 1 µM (HDAC6 enzyme): 100% | inhibition at 1 µM (HDAC9 enzyme): 99% | inhibition at 1 µM (HDAC1 enzyme): 94%

O=C1CCCN1[C@@H]1CCOC[C@H]1N1Cc2ccc(-c3noc(C(F)(F)F)n3)cc2C1=O [Example 182, 2-((3S,4R)-4-(2-oxopyrrolidin-1-yl)tetrahydro-2H-pyran-3-yl)-6-(5-(trifluoromethyl)-1,2,4-oxadiazol-3-yl)isoindolin-1-one]
HDAC6 inhibitory rate (%) (1 μM) (HDAC6 enzyme): 98% | HDAC9 inhibitory rate (%) (1 μM) (HDAC9 enzyme): 71% | HDAC1 inhibitory rate (%) (1 μM) (HDAC1 enzyme): 10%

CC(=O)N1CC[C@@H](N2Cc3ccc(-c4noc(C(F)(F)F)n4)cc3C2=O)[C@@H](c2ccccc2)C1 [Example 23, 2-((3S,4R)-1-acetyl-3-phenylpiperidin-4-yl)-6-(5-(trifluoromethyl)-1,2,4-oxadiazol-3-yl)isoindolin-1-one]
inhibition at 1 µM (HDAC6 enzyme): 98% | inhibition at 1 µM (HDAC9 enzyme): 84% | inhibition at 1 µM (HDAC1 enzyme): 58%

CC(C)(C)OC(=O)N[C@@H]1CCCC[C@H]1N1Cc2ccc(-c3noc(C(F)(F)F)n3)cc2C1=O (relative stereo) [Example 6, tert-butyl trans-(2-(1-oxo-6-(5-(trifluoromethyl)-1,2,4-oxadiazol-3-yl)-1,3-dihydro-2H-isoindol-2-yl)cyclohexyl)carbamate]
inhibition at 1 µM (HDAC6 enzyme): 95% | inhibition at 1 µM (HDAC9 enzyme): 65% | inhibition at 1 µM (HDAC1 enzyme): 9%

CC(C)(C)OC(=O)N[C@@H]1CCC[C@H]1N1Cc2ccc(-c3noc(C(F)(F)F)n3)cc2C1=O [Example 140, tert-butyl ((1R,2R)-2-(1-oxo-6-(5-(trifluoromethyl)-1,2,4-oxadiazol-3-yl)-1,3-dihydro-2H-isoindol-2-yl)cyclopentyl)carbamate]
inhibition at 1 µM (HDAC6 enzyme): 39% | inhibition at 1 µM (HDAC9 enzyme): 41% | inhibition at 1 µM (HDAC1 enzyme): 27%
